Results as given in US20250340946A1, “METHOD OF PROGNOSING AND TREATING GLIOMA” (Agency for Science, Technology and Research, priority 2022, published 2025).

Assays:
[1] = test system: LOC expression in mIDH1 (IDH1 R132H/WT) LN18 cells; experiment: qPCR of LOC expression in mIDH1 cells; assay type: cell-based, human
Description: FIG. 6: LOC: DHX15 serves as a targetable vulnerability in wtIDH1 high-grade glioma. A) LOC expression in different IDH mutation status across different WHO grade gliomas based on RNA-seq data from CGGA. B) qPCR of LOC expression in wtIDH1 LN18 cells or mIDH1 clones. Those clones were generated by base editing. C) qPCR of LOC expression in wtIDH1 and mIDH1 LN18 cells treated with or without mIDH1 inhibitor AGI-5198. D) qPCR of LOC expression in wtIDH1 and mIDH1 LN18 cells with or without DMNT inhibitor 5-Azac treatment. E) Protein lysates from wtIDH1 and mIDH1 LN18 cells were analyzed for levels of phosphorylated and total p65 and p38 proteins by western blot. F) wtIDH1 and mIDH1 LN18 cells were transfected with empty vector (EV) or expression vectors of LOC or mutant version of LOC (LOC-M2). After 48 hours cells were harvested and endogenous DHX15 or p65 was immunoprecipitated with antibody against DHX15 or p65. IP samples were analyzed by subsequent immunoblot for the indicated proteins at indicated time points. G-H) Cell viability assay of wtIDH1 G) and mIDH1 LN18 cells H) treated with or without DHX inhibitor. I) Fluorescence imaging of wtIDH1 and mIDH1 GBM orthotopic xenograft models with or without DHX inhibitor treatment. J) Quantification of tumor signal intensity obtained from I). […]

GBM cells = experiment: Cell viability, RNA helicase inhibitors alone or with TMZ (FIG. 9); assay type: cell-based; conditions: for synergy on cell viability: combination therapy with TMZ; for cell viability: single agent

| Compound | IDH1 mutation induced hypermethylation phenotype (diminished LOC expression) ([1]; DNA methyltransferase inhibitor treatment, FIG. 6D) | synergy on cell viability (GBM cells) | cell viability (GBM cells) | LOC expression ([1]; IDH1 R132H/WT cells, mIDH1 inhibitor treatment, FIG. 6C) |
| --- | --- | --- | --- | --- |
| Nc1ncn([C@@H]2O[C@H](CO)[C@@H](O)[C@H]2O)c(=O)n1 [5-AzaC, 5-Azacytidine] | abrogate this hypermethylation phenotype |  |  |  |
| COc1ccc([C@@]23Oc4cc(OC)cc(OC)c4[C@]2(O)[C@H](O)[C@H](C(=O)N(C)C)[C@H]3c2ccccc2)cc1 [Rocaglamide] |  | does not show synergistic inhibition of cell viability | inhibition of cell viability |  |
| Cc1ccccc1C(C(=O)NC1CCCCC1)N(C(=O)Cn1ccnc1C)c1cccc(F)c1 (stereo not drawn) [selective mutant IDH1^R132H inhibitor] |  |  |  | restored the LOC expression |
| RK-33 |  | does not show synergistic inhibition of cell viability | inhibition of cell viability |  |
